Here are results for 38 compounds from US11912703B2, “6-azaindole compounds” (BRISTOL-MYERS SQUIBB COMPANY, priority 2017, dated 2024).

Structures are written as SMILES. Like-named read-outs stand apart in the source and are kept apart here.

For one test, the target named is human TLR7 (Homo sapiens (Human), UniProt Q9NYK1). The test is described as follows: TLR7 inhibition reporter assay (HEK-Blue SEAP). It counts as cell-based. Conditions: HEK-Blue cells overexpressing human TLR7, gardiquimod 7.5 μM stimulation. (In general: In a reporter assay the amount or activity of a reporter protein is the signal.)
Chain of human TLR7 (Q9NYK1 27-1049): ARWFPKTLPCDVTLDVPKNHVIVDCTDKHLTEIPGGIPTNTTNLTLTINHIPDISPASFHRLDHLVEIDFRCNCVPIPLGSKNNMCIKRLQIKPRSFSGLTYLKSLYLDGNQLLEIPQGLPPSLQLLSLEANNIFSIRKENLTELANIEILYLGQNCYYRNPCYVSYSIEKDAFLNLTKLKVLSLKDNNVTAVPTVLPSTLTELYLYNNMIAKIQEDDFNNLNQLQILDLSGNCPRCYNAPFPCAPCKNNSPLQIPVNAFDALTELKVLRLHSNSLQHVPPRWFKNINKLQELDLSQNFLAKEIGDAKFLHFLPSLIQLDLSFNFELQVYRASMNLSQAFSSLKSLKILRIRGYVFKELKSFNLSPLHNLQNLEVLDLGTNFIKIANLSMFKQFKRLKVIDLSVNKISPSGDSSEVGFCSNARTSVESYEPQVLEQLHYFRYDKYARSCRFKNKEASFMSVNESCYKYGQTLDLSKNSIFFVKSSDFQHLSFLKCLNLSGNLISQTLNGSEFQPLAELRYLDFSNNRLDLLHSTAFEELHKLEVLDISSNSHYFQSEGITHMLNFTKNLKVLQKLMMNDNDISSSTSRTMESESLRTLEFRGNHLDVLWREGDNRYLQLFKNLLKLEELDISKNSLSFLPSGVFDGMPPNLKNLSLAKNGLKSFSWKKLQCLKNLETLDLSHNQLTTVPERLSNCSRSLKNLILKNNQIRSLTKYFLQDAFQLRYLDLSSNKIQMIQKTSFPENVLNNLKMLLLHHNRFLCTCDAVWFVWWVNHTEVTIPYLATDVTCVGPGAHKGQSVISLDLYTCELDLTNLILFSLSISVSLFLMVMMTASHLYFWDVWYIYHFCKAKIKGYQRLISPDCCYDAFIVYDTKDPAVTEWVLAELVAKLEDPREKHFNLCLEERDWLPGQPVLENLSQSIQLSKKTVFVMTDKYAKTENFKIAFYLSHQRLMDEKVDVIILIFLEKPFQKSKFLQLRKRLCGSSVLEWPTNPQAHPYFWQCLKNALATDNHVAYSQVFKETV
The target of the next test is human TLR9 (Homo sapiens (Human), UniProt Q9NR96). The test is described as follows: TLR9 inhibition reporter assay (HEK-Blue SEAP).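 Also: SEAP driven by IFN-β minimal promoter carrying five NF-κB and AP-1 sites, 22 h at 37 °C, compounds 0.05 nM–50 µM, inhibition scaled between agonist-plus-DMSO and reference-inhibitor wells.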
Chain of human TLR9 (Q9NR96 26-1032): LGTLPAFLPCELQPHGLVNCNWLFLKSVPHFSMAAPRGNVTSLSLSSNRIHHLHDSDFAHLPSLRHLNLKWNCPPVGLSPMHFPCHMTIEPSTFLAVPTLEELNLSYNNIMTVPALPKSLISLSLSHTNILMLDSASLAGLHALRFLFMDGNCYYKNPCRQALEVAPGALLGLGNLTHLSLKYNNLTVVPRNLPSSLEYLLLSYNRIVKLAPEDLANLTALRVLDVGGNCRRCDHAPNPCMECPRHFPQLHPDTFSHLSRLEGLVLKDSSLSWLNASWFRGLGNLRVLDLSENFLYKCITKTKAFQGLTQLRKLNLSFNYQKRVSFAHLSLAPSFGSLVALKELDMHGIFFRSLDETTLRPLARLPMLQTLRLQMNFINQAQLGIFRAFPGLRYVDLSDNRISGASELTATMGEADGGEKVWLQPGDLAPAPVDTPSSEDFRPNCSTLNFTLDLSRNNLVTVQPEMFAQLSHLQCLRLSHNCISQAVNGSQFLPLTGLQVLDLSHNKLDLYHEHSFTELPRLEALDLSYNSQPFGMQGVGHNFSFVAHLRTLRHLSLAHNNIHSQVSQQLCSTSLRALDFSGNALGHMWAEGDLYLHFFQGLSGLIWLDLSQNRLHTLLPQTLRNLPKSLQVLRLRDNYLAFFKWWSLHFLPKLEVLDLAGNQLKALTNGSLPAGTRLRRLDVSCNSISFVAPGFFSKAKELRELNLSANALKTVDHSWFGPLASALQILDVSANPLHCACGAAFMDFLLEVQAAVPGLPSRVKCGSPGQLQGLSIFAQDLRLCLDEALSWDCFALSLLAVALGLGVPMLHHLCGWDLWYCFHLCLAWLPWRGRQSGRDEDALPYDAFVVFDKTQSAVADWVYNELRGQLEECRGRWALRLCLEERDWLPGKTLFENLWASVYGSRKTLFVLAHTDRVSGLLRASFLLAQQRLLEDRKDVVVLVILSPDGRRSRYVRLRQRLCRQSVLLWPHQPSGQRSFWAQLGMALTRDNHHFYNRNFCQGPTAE
The target of the next test is human TLR8 (Homo sapiens (Human), UniProt Q9NR97). In words: TLR8 inhibition reporter assay (HEK-Blue SEAP).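 Also: SEAP driven by IFN-β minimal promoter with five NF-κB and AP-1 sites, compounds tested 0.05 nM to 50 µM, 22 h incubation, inhibition relative to agonist plus DMSO wells.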
Chain of human TLR8 (Q9NR97 27-1041): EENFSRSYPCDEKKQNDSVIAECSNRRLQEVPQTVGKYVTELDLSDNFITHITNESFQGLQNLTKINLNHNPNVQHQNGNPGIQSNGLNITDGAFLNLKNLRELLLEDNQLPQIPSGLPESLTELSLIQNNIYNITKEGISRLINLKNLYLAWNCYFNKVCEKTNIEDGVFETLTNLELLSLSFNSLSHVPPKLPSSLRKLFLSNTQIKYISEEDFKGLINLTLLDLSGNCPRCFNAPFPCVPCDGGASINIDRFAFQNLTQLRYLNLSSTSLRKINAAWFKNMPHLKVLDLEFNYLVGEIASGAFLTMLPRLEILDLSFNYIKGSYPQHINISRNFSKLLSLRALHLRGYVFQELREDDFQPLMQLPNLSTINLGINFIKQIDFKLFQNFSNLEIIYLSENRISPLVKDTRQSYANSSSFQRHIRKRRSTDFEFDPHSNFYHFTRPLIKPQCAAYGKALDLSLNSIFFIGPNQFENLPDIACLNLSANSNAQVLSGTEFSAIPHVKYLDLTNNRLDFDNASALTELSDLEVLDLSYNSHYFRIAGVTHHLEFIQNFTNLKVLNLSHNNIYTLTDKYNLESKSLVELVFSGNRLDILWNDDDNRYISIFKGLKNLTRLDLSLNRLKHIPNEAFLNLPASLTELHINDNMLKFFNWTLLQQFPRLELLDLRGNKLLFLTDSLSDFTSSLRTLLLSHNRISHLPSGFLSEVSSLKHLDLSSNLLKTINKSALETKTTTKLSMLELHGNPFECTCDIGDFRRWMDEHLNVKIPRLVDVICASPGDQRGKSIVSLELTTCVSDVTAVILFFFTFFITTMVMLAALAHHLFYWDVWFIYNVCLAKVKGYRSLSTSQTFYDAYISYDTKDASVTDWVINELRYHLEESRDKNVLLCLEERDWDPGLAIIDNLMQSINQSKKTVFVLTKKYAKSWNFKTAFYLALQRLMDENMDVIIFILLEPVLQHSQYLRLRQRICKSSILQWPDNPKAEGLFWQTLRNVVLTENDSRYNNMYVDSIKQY
Where [1] appears, read: read-out: TLR9 IC50; HEK-Blue cells overexpressing human TLR9; ODN2006 5 nM stimulation; SEAP reporter.
The mark [2] stands for this setting: read-out: TLR8 IC50; HEK-Blue cells overexpressing human TLR8; R848 15.9 μM stimulation; SEAP reporter.
Setting [3] is: read-out: TLR9 IC50; HEK-Blue cells overexpressing human TLR9, ODN2006 5 nM stimulation, SEAP reporter.
Setting [4] is: read-out: TLR8 IC50; HEK-Blue cells overexpressing human TLR8, R848 15.9 μM stimulation, SEAP reporter.

Protocol for human TLR9: HEK-Blue™-cells (Invivogen) overexpressing human TLR7, TLR8 or TLR9 receptors were used for screening inhibitors of these receptors using an inducible SEAP (secreted embryonic alkaline phosphatase) reporter gene under the control of the IFN-β minimal promoter fused to five NF-κB and AP-1-binding sites. Briefly, cells are seeded into Greiner 384 well plates (15000 cells per well for TLR7, 20,000 for TLR8 and 25,000 for TLR9) and then treated with test compounds in DMSO to yield a final dose response concentration range of 0.05 nM-50 μM. After a 30 minute compound pre-treatment at room temperature, the cells are then stimulated with a TLR7 ligand (gardiquimod at a final concentration of 7.5 μM), TLR8 ligand (R848 at a final concentration of 15.9 μM) or TLR9 ligand (ODN2006 at a final concentration of 5 nM) to activate NF-κB and AP-1 which induce the production of SEAP. After a 22 hour incubation at 37° C., 500 CO2, SEAP levels are determined with the addition of HEK-Blue™ Detection reagent (Invivogen), a cell culture medium that allows for detection of SEAP, according to manufacturer's specifications.

For `Cc1c(-c2[nH]c3cnc(C4CCC(NC5CCOCC5)CC4)c(F)c3c2C(C)C)cn2ncnc2c1C` (stereo not drawn) [Example 232], the IC50 – broadly, the point on the concentration scale where inhibition reaches its midpoint – on human TLR7 came to 11 nM; on human TLR9 (setting [1]) it was 4500 nM; on human TLR8 (setting [2]) it was 3.2 nM.
For the compound `CNCC(=O)N1CCC(c2ncc3[nH]c(-c4cc(C)nc(C)c4)c(C(C)C)c3c2F)CC1` [Example 214], the results for the IC50 at human TLR7, on human TLR9 (setting [3]) and at human TLR8 (setting [4]) were 7.5 nM, 2070 nM and 16 nM, respectively.
For `Cc1c(-c2[nH]c3cnc(N4CC5(C4)CN(C4COC4)C5)c(F)c3c2C(C)C)cn2ncnc2c1C` [Example 400, 6-(4-fluoro-3-isopropyl-5-(6-(oxetan-3-yl)-2,6-diazaspiro[3.3]heptan-2-yl)-1H-pyrrolo[2,3-c]pyridin-2-yl)-7,8-dimethyl-[1,2,4]triazolo[1,5-a]pyridine], the results for the IC50 against human TLR7, on human TLR9 and at human TLR8 were 82 nM, over 50000 nM and 1.6 nM, respectively.
Turning to `COc1cc(-c2[nH]c3cnc(C4CCC(NC(C)C)CC4)c(F)c3c2C(C)C)cn2ncnc12` (stereo not drawn) [Example 73], the values for the IC50 at human TLR7, at human TLR9 (setting [3]) and at human TLR8 (setting [4]) were 0.87 nM, 2960 nM and 0.77 nM, respectively.
The corresponding values for `COc1cc(-c2[nH]c3cnc(N4CCC(NC5CCOC5)CC4)c(F)c3c2C(C)C)cn2ncnc12` (stereo not drawn) [Example 103] are 0.86 nM, 5920 nM and 0.48 nM.
On to `COc1cc(-c2[nH]c3cnc(N4CC5(CN(CC6CCOCC6)C5)C4)c(F)c3c2C(C)C)cn2ncnc12` [Example 371], for which the IC50 at human TLR7 was determined as 9 nM; on human TLR9 (setting [3]), 5480 nM; at human TLR8 (setting [4]), 5.9 nM.
The corresponding values for `CNC(=O)CN1CCC(c2ncc3[nH]c(-c4cc(OC)c5ncnn5c4)c(C(C)C)c3c2C)CC1` [Example 2, 2-(4-(3-isopropyl-2-(8-methoxy-[1,2,4]triazolo[1,5-a]pyridin-6-yl)-4-methyl-1H-pyrrolo[2,3-c]pyridin-5-yl)piperidin-1-yl)-N-methylacetamide] are 1.6 nM, 398 nM and 14 nM.
The corresponding values for `Cc1cc(-c2[nH]c3cnc(C4CCC(NC5COC5)CC4)c(F)c3c2C(C)C)cn2ncnc12` (stereo not drawn) [Example 107] are 3.6 nM, 2060 nM and 4.5 nM.
The corresponding values for `CNC(=O)CN1CCN(c2ncc3[nH]c(-c4cn5ncnc5c(C)c4C)c(C(C)C)c3c2C)CC1` [Example 413] are 29 nM, over 50000 nM and 6.1 nM.
On to `Cc1c(-c2[nH]c3cnc(C4CCC(NCC(F)F)CC4)cc3c2C(C)C)cn2ncnc2c1C` (stereo not drawn) [Example 336], for which the IC50 on human TLR7 worked out at 8.8 nM; at human TLR9 (setting [3]), 4000 nM; at human TLR8 (setting [4]), 36 nM.
For the compound `COc1cc(-c2[nH]c3cnc(N4CCN(CC(F)(F)F)C[C@H]4C)c(F)c3c2C(C)C)cn2ncnc12` [Example 449], the figures for the IC50 on human TLR7, at human TLR9 (setting [3]) and at human TLR8 (setting [4]) were 37 nM, over 50000 nM and 171 nM, respectively.
On to `COc1cc(-c2[nH]c3cnc(N4CCN(C5COC5)C[C@H]4C)c(F)c3c2C(C)C)cn2ncnc12` [Example 440], for which the results for the IC50 on human TLR7, on human TLR9 (setting [3]) and on human TLR8 (setting [4]) were 11 nM, over 50000 nM and 62 nM, respectively.
Regarding `COc1cc(-c2[nH]c3cnc(N4CC5(C4)CN(C4COC4)C5)c(F)c3c2C(C)C)cn2ncnc12` [Example 369, 6-(4-fluoro-3-isopropyl-5-(6-(oxetan-3-yl)-2,6-diazaspiro[3.3]heptan-2-yl)-1H-pyrrolo[2,3-c]pyridin-2-yl)-8-methoxy-[1,2,4]triazolo[1,5-a]pyridine], the IC50 against human TLR7 is 27 nM; on human TLR9 (setting [3]), over 50000 nM; at human TLR8 (setting [4]), 23 nM.
The corresponding values for `Cc1cc(-c2[nH]c3cnc(C4CCN(C5COC5)CC4)c(F)c3c2C(C)C)cc(C)n1` [Example 251] are 15 nM, 14800 nM and 23 nM.
The corresponding values for `Cc1c(-c2[nH]c3cnc(C4CCC(N5CCC5)CC4)c(F)c3c2C(C)C)cn2ncnc2c1C` (stereo not drawn) [Example 165] are 0.4 nM, 905 nM and 0.62 nM.
Turning to `COc1cc(-c2[nH]c3cnc(N4CC5(CN(CC6(C)COC6)C5)C4)c(F)c3c2C(C)C)cn2ncnc12` [Example 376], the IC50 was 9.5 nM against human TLR7, 6000 nM at human TLR9 (setting [3]) and over 3120 nM at human TLR8 (setting [4]).
The corresponding values for `CNC(=O)CN1CCC(c2cc3c(C(C)C)c(-c4cn5ncnc5c(C)c4C)[nH]c3cn2)CC1` [Example 27] are 49 nM, 477 nM and 86 nM.
The corresponding values for `CNC(=O)CN1CCN(c2ncc3[nH]c(-c4cc(OC)c5ncnn5c4)c(C(C)C)c3c2F)[C@H](C)C1` [Example 445] are 13 nM, over 50000 nM and 25 nM.
The corresponding values for `Cc1cc(-c2[nH]c3cnc(C4CCC(NC5CCOCC5)CC4)c(F)c3c2C(C)C)cn2ncnc12` (stereo not drawn) [Example 82] are 0.18 nM, 1460 nM and 0.36 nM.
Consider `COc1cc(-c2[nH]c3cnc(N4CC5(C4)CN(C4CCOCC4)C5)c(F)c3c2C(C)C)cn2ncnc12` [Example 370], for which the IC50 at human TLR7 came out at 19 nM; on human TLR9 (setting [3]), 10300 nM; at human TLR8 (setting [4]), 174 nM.
Take `Cc1c(-c2[nH]c3cnc(N4CCN(CC(=O)N(C)C)C[C@H]4C)c(F)c3c2C(C)C)cn2ncnc2c1C` [Example 466]: the results for the IC50 against human TLR7, on human TLR9 (setting [1]) and at human TLR8 (setting [2]) were 16 nM, 47500 nM and 2.5 nM, respectively.
With `Cc1cc(-c2[nH]c3cnc(C4CCNCC4)c(F)c3c2C(C)C)cc(C)n1` [Example 151], the results for the IC50 against human TLR7, at human TLR9 (setting [3]) and on human TLR8 (setting [4]) were 1.1 nM, 768 nM and 4.4 nM, respectively.
`Cc1c(-c2[nH]c3cnc(C4CCC(N5CC6(COC6)C5)CC4)c(F)c3c2C(C)C)cn2ncnc2c1C` (stereo not drawn) [Example 50]: the IC50 amounted to 0.76 nM against human TLR7, 1010 nM at human TLR9 (setting [3]) and 0.83 nM at human TLR8 (setting [4]).
For the compound `COc1cc(-c2[nH]c3cnc(N4CC5(C4)CN(C(C)C)C5)c(F)c3c2C(C)C)cn2ncnc12` [Example 373], the IC50 against human TLR7 turned out to be 8.1 nM; at human TLR9 (setting [3]), 5820 nM; at human TLR8 (setting [4]) it was 7.1 nM.
The corresponding values for `CNC(=O)CNC1CCN(c2cc3c(C(C)C)c(-c4cc(OC)c5ncnn5c4)[nH]c3cn2)CC1` [Example 329] are 7.5 nM, 647 nM and 7.4 nM.
On to `COc1cc(-c2[nH]c3cnc(N4CCNCC4)c(C)c3c2C(C)C)cn2ncnc12` [Example 213, 6-(3-isopropyl-4-methyl-5-(piperazin-1-yl)-1H-pyrrolo [2,3-c]pyridin-2-yl)-8-methoxy-[1,2,4]triazolo[1,5-a]pyridine], for which the IC50 is 1.5 nM at human TLR7, 517 nM on human TLR9 (setting [3]) and 3 nM on human TLR8 (setting [4]).
The corresponding values for `Cc1cc(-c2[nH]c3cnc(C4CCN(CC(=O)N(C)C)CC4)c(F)c3c2C(C)C)cc(C)n1` [Example 153] are 8.8 nM, 3830 nM and 5.2 nM.
With `Cc1c(N2CCC(N3CCS(=O)(=O)CC3)CC2)ncc2[nH]c(-c3cc(C)c4ncnn4c3)c(C(C)C)c12` [Example 281], the IC50 against human TLR7 came out at 16 nM; at human TLR9 (setting [3]), 36400 nM; at human TLR8 (setting [4]), 43 nM.
The corresponding values for `COc1cc(-c2[nH]c3cnc(N4CCC(NCC(=O)N(C)C)CC4)cc3c2C(C)C)cn2ncnc12` [Example 333] are 5.4 nM, 1060 nM and 4.3 nM.
As for `Cc1c(-c2[nH]c3cnc(C4CCC(NCC(C)(C)O)CC4)c(C)c3c2C(C)C)cn2ncnc2c1C` (stereo not drawn) [Example 122], the IC50 against human TLR7 worked out at 14 nM; at human TLR9 (setting [3]), 400 nM; on human TLR8 (setting [4]), 10 nM.
The corresponding values for `Cc1c(-c2[nH]c3cnc(N4CCC(N5CCC5)CC4)c(F)c3c2C(C)C)cn2ncnc2c1C` [Example 51] are 0.74 nM, 2770 nM and 0.58 nM.
Regarding `COc1cc(-c2[nH]c3cnc(N4CCC(NC5CCOCC5)CC4)cc3c2C(C)C)cn2ncnc12` [Example 321], the IC50 against human TLR7 stood at 2.8 nM; on human TLR9 (setting [3]) it was 1010 nM; at human TLR8 (setting [4]), 0.64 nM.
Regarding `Cc1c(-c2[nH]c3cnc(N4CCC(NC(C)C)CC4)c(F)c3c2C(C)C)cn2ncnc2c1C` [Example 166], the figures for the IC50 at human TLR7, at human TLR9 (setting [3]) and at human TLR8 (setting [4]) were 0.41 nM, 3340 nM and 0.18 nM, respectively.
With `CCN1CCN(c2ncc3[nH]c(-c4cc(OC)c5ncnn5c4)c(C(C)C)c3c2F)CC1` [Example 389], the IC50 at human TLR7 amounted to 1.1 nM; on human TLR9 (setting [3]), 6160 nM; on human TLR8 (setting [4]) it was 0.38 nM.
`COCCNC1CCN(c2ncc3[nH]c(-c4cc(OC)c5ncnn5c4)c(C(C)C)c3c2F)CC1` [Example 99]: the IC50 at human TLR7 turned out to be 0.49 nM; on human TLR9 (setting [3]) it was 3980 nM; at human TLR8 (setting [4]), 0.41 nM.
The corresponding values for `CNCC(=O)N1CCN(c2ncc3[nH]c(-c4cc(OC)c5ncnn5c4)c(C(C)C)c3c2C)CC1` [Example 98] are 4.7 nM, 1200 nM and 14 nM.
For the compound `COc1cc(-c2[nH]c3cnc(N4CCC(N(C)CC(N)=O)CC4)c(F)c3c2C(C)C)cn2ncnc12` [Example 222], the IC50 on human TLR7 was found to be 3.2 nM; on human TLR9 (setting [1]) it was 5770 nM; on human TLR8 (setting [2]), 2.7 nM.
For `COc1cc(-c2[nH]c3cnc(N4CCC(N(C)C(C)C)CC4)c(F)c3c2C(C)C)cn2ncnc12` [Example 101], the IC50 at human TLR7 was 1.2 nM; at human TLR9 (setting [3]) it was 4140 nM; at human TLR8 (setting [4]) it was 0.66 nM.
